Test results from patent US11976083B2, “Inhibitors of peptidylarginine deiminases” (Gilead Sciences, Inc., priority 2020, dated 2024).

Each compound was assayed against T1, human PAD4 (Homo sapiens, UniProt Q9UM07) (assay: In vitro PAD4 BAEE biochemical assay). Conditions: BAEE substrate 3 mM, 5 nM PAD4, 2 mM calcium chloride; geometric mean of multiple experiments.
T1 construct: human PAD4 (NM_012387), A2-P663, was PCR amplified; His-SUMO (N, cleaved yes); made in house; host or cells: E. coli BL21(DE3)
In short: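 Ammonia produced by BAEE deimination (3 mM substrate, 2 h, 25 °C) was read as fluorescent isoindole after o-phthalaldehyde/DTT derivatization, ex 405 nm/em 535 nm. Human PAD4 at 5 nM final, 2 mM calcium, pH 7.6 MOPS; compound preincubated 30 min. IC50s, normalized to BB-Cl-Amidine and DMSO controls, were geometric-mean averaged.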

T1 sequence (Q9UM07 2-663): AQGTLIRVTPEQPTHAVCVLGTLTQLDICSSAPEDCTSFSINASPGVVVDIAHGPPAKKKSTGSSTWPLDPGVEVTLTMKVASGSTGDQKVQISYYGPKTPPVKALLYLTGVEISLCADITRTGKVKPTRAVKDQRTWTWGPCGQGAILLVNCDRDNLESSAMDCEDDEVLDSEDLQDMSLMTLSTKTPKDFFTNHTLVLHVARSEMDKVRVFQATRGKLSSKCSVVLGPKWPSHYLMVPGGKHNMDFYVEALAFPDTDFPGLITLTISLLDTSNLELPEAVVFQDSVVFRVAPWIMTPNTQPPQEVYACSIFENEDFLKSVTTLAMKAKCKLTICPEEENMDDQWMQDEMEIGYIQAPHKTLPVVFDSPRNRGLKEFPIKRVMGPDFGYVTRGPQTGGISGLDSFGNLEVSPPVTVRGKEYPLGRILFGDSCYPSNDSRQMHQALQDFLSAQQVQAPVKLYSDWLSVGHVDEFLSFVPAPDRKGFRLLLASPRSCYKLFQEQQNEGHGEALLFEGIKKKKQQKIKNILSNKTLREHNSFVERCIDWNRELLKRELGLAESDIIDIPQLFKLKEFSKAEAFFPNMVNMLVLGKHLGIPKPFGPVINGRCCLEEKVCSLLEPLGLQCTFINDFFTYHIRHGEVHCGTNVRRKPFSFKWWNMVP

Compound	IC50
C[C@H]1NC(=O)C(C)(C)OCCCCCn2c(-c3nc4cc(C(=O)N[C@H]5CNCC[C@@H]5F)c(F)cc4n3C3CC3)cc3ccc1nc32 [Example 540, 1-cyclopropyl-6-fluoro-~{N}-[(3~{S},4~{S})-4-fluoro-3-piperidyl]-2-[(11~{R})-8,8,11-trimethyl-9-oxo-7-oxa-1,10,19-triazatricyclo[10.5.2.0^ {15,18}]nonadeca-12(19),13,15(18),16-tetraen-17-yl] benzimidazole-5-carboxamide]	90 nM
COc1cc(C(=O)N2[C@H]3CC[C@@H]2[C@H](N)C3)cc2nc(-c3cc4ccc5nc4n3CCCCCCc3ccccc3C(=O)N[C@@H]5C)n(C)c12 [Example 40, (2~{R})-18-[5-[(1~{R},2~{R},4~{S})-2-amino-7-azabicyclo[2.2.1]heptane-7-carbonyl]-7-methoxy-1-methyl-benzimidazol-2-yl]-2-methyl-3,17,23-triazatetracyclo[15.5.2.0^{5,10).0^{20,24}] tetracosa-1(23),5,7,9,18,20(24),21-heptaen-4-one]	24 nM
Cc1cc2c(cc1C(=O)N1[C@H]3CC[C@@H]1[C@H](N)C3)nc(-c1cc3ccc4nc3n1CCCCCCC(C)(C)C(=O)N[C@@H]4C)n2C [Example 556, (11~{R})-17-[5-[(1~{R}, 2~{R},4~{S})-2-amino-7-azabicyclo[2.2.1]heptane-7-carbonyl]-1,6-dimethyl-benzimidazol-2-yl]-8,8,11-trimethyl-1,10,19-triazatricyclo[10.5.2.0^ {15,18}]nonadeca-12(19),13,15(18),16-tetraen-9-one]	69 nM
COCC1(C)CCCCCCn2c(-c3nc4cc(C(=O)N5[C@H]6CC[C@@H]5[C@H](N)C6)cc(OC)c4n3C)cc3ccc(cc32)[C@@H](C)NC1=O (stereo partly drawn) [Example 341, (11~{R})-17-[5-[(1~{R},2~{R},4~{S})-2-amino-7-azabicyclo[2.2.1]heptane-7-carbonyl]-7-methoxy-1-methyl-benzimidazol-2-yl]-8-(methoxymethyl)-8,11-dimethyl-1,10-diazatricyclo[10.5.2.0^{15,18}]nonadeca-12(19),13,15(18),16-tetraen-9-one]	59 nM
COc1cc(C(=O)N2CC[C@@H](OC)[C@@H](N)C2)cc2nc(-c3cc4ccc5nc4n3CCCCCCC(F)(F)C(=O)N[C@@H]5C)n(C)c12 [Example 374, (11~{R})-17-[5-[(3~{S},4~{R})-3-amino-4-methoxy-piperidine-1-carbonyl]-7-methoxy-1-methyl-benzimidazol-2-yl]-8,8-difluoro-11-methyl-1,10,19-triazatricyclo[10.5.2.0^{15,18}]nonadeca-12(19),13,15(18),16-tetraen-9-one]	121 nM
COc1cc(C(=O)N2CCC[C@@H](N)[C@H]2C)cc2nc(-c3cc4ccc5nc4n3CCCCCc3nccnc3C(=O)N[C@@H]5C)n(C)c12 [Example 528, (2~{R})-17-[5-[(2~ {R},3~{R})-3-amino-2-methyl-piperidine-1-carbonyl]-7-methoxy-1-methyl-benzimidazol-2-yl]-2-methyl-3,6,9,16,22-pentazatetracyclo [14.5.2.0^{5,10}.0^{19, 23}]tricosa-1(22),5(10), 6,8,17,19(23),20-heptaen-4-one]	55 nM
C[C@H]1NC(=O)[C@](F)(c2ccccn2)CCCCCCn2c(-c3nc4cc(C(=O)N5C[C@H](N)[C@@H]6CC[C@H]5C6)cc(F)c4n3C3CC3)cc3ccc1nc32 [Example 886, (8~{R},11~{R})-17-[5-[(1~{S),4~{R},5~{R))-4-amino-2-azabicyclo[3.2.1]octane-2-carbonyl]-1-cyclopropyl-7-fluoro-benzimidazol-2-yl]-8-fluoro-11-methyl-8-(2-pyridyl)-1,10,19-triazatricyclo [10.5.2.0^{15,18}]nonadeca-12(19),13,15(18), 16-tetraen-9-one]	29 nM
C[C@H]1NC(=O)c2ccc(C#Cc3ccccc3)nc2CCCCCn2c(-c3nc4cc(C(=O)N5C[C@H](N)[C@@H]6CC[C@H]5C6)cc(F)c4n3C3CC3)cc3ccc1nc32 [Example 820, (2˜{R})-17-[5-[(1˜{S},4˜{R},5˜{R})-4-amino-2-azabicyclo[3.2.1]octane-2-carbonyl]-1-cyclopropyl-7-fluoro-benzimidazol-2-yl]-2-methyl-8-(2-phenylethynyl)-3,9,16,22-tetrazatetracyclo[14.5.2.0^{5,10}.0^{19,23}]tricosa-1(21),5(10),6,8,17,19,22-heptaen-4-one]	168 nM
COc1cc(C(=O)N2[C@H]3CC[C@@H]2[C@H](N)C3)cc2nc(-c3cc4ccc5nc4n3CCCCN(C)C(=O)N[C@@H]5C)c(C)n12 [Example 209, (9˜{R})-15-[7-[(1˜{R},2˜{R},4˜{S})-2-amino-7-azabicyclo[2.2.1]heptane-7-carbonyl]-5-methoxy-3-methyl-imidazo[1,2-a]pyridin-2-yl]-6,9-dimethyl-1,6,8,17-tetrazatricyclo[8.5.2.0^{13,16}]heptadeca-10(17),11,13(16),14-tetraen-7-one]	74 nM

Now from value to compound:

IC50	Compound
16 nM	COc1cc(C(=O)N2C[C@H](N)[C@@H]3CC[C@H]2C3)cc2nc(-c3cc4ccc5nc4n3CCCCCc3nccc(Cl)c3C(=O)N[C@@H]5C)n(C)c12 [Example 845, (2~{R})-17-[5-[(1~{S},4~{R}, 5~{R})-4-amino-2-azabicyclo [3.2.1]octane-2-carbonyl]-7-methoxy-1-methyl-benzimidazol-2-yl]-6-chloro-2-methyl-3,9,16,22-tetrazatetracyclo[14.5.2.0^ {5,10}.0^{19,23}]tricosa-1(22),5(10),6,8,17,19(23),20-heptaen-4-one]
81 nM	COc1cc(C(=O)N2C[C@H](N)[C@@H]3CC[C@H]2C3)cc2nc(-c3cc4ccc5nc4n3CCCC[C@]3(F)C[C@H]3C(=O)N3CCC[C@H]53)n(C)c12 [Example 955, (2~{R},8~{S},10~{S})-16-[5-[(1~{S},4~{R},5~{R})-4-amino-2-azabicyclo[3.2.1]octane-2-carbonyl]-7-methoxy-1-methyl-benzimidazol-2-yl]-10-fluoro-6,15,21-triazapentacyclo [13.5.2.0^{2,6}.0^{8,10}.0^ {18,22}]docosa-1(21),16, 18(22),19-tetraen-7-one]
32 nM	COc1cc(C(=O)N2[C@H]3CC[C@@H]2[C@H](N)C3)cc2nc(-c3cc4ccc5nc4n3CCCCCCC(=O)N[C@@H]5C)n(C3CC3)c12 [Example 254, (10~{R})-16-[5-[(1~{R},2~{R},4~{S})-2-amino-7-azabicyclo[2.2.1]heptane-7-carbonyl]-1-cyclopropyl-7-methoxy-benzimidazol-2-yl]-10-methyl-1,9,18-triazatricyclo[9.5.2.0^{14,17}]octadeca-11(18),12,14(17),15-tetraen-8-one]
87 nM	COc1cc(C(=O)N[C@H]2CNCC[C@@H]2F)cc2nc(-c3cc4ccc5nc4n3CCCCCC(C)(C)C(=O)N[C@@H]5C)n(C)c12 [Example 76, ~{N}-[(3~{S),4~{S})-4-fluoro-3-piperidyl]-7-methoxy-1-methyl-2-[(10~{R})-7,7,10-trimethyl-8-oxo-1,9,18-triazatricyclo[9.5.2.0^{14,17}]octadeca-11(18),12,14(17),15-tetraen-16-yl]benzimidazole-5-carboxamide]
24 nM	C[C@H]1NC(=O)[C@@H]2C[C@H]2CC(F)(F)CCCn2c(-c3nc4cc(C(=O)N5C[C@H](N)[C@@H]6CC[C@H]5C6)cc(F)c4n3C3CC3)cc3ccc1nc32 [Example 881, (2~{R},5~{R},7~{S})-14-[5-[(1~{S},4~{R},5~{R})-4-amino-2-azabicyclo [3.2.1]octane-2-carbonyl]-1-cyclopropyl-7-fluoro-benzimidazol-2-yl]-9,9-difluoro-2-methyl-3,13,19-triazatetracyclo [11.5.2.0^{5,7}.0^{16,20}] icosa-1(19),14,16(20), 17-tetraen-4-one]
32 nM	COc1cc(C(=O)N2[C@H]3CC[C@@H]2[C@H](N)C3)cc2nc(-c3cc4ccc5cc4n3CCCCCCC3(CC3)C(=O)N[C@@H]5C)n(C)c12 [Example 221, (11~{R})-17-[5-[(1~{R},2~{R},4~{S})-2-amino-7-azabicyclo[2.2.1]heptane-7-carbonyl]-7-methoxy-1-methyl-benzimidazol-2-yl]-11-methyl-spiro[1,10-diazatricyclo[10.5.2.0^{15,18}]nonadeca-12(19),13,15(18),16-tetraene-8,1′-cyclopropane]-9-one]
25000 nM	COc1cc(C(=O)N[C@H]2CNCC(F)(F)C2)cc2nc(-c3cc4ccc5nc4n3CCCCCCC(C)(C)C(=O)N[C@@H]5C)n(C)c12 [Example 63, ~{N}-[(3~{R})-5,5-difluoro-3-piperidyl]-7-methoxy-1-methyl-2-[(11~{R})-8,8,11-trimethyl-9-oxo-1,10,19-triazatricyclo[10.5.2.0^{15,18}]nonadeca-12(19),13,15(18),16-tetraen-17-yl]benzimidazole-5-carboxamide]
28 nM	C[C@H]1NC(=O)[C@H]2[C@H](CCCCCn3c(-c4nc5cc(C(=O)N[C@H]6CNCC[C@@H]6F)c(F)cc5n4C)cc4ccc1nc43)C2(F)F [Example 383, 2-[(2˜{R},5˜{R},7˜{S})-6,6-difluoro-2-methyl-4-oxo-3,13,19-triazatetracyclo[11.5.2.0^{5,7}.0^{16,20}]icosa-1(19),14,16(20),17-tetraen-14-yl]-6-fluoro-˜{N}-[(3˜{S},4˜{S})-4-fluoro-3-piperidyl]-1-methyl-benzimidazole-5-carboxamide]
31 nM	C[C@H]1NC(=O)c2ccc(Cl)nc2CCCCCn2c(-c3nc4cc(C(=O)N5C[C@H](N)[C@@H]6CC[C@H]5C6)cc(Cl)c4n3C3CC3)cc3ccc1nc32 [Example 812, (2~{R})-17-[5-[(1~{S},4~{R}, 5~{R})-4-amino-2-azabicyclo [3.2.1]octane-2-carbonyl]-7-chloro-1-cyclopropyl-benzimidazol-2-yl]-8-chloro-2-methyl-3,9,16,22-tetrazatetracyclo[14.5.2.0^ {5,10}.0^{19,23}]tricosa-1(21),5(10),6,8,17,19,22-heptaen-4-one]
